The values below come from patent US20240139211A1, “METHODS AND COMPOSITIONS FOR TREATING AMYOTROPHIC LATERAL SCLEROSIS” (Amylyx Pharmaceuticals, Inc., priority 2022, published 2024).

For data set [1] the following is noted: male, CD (Sprague-Dawley) IGS, rat, in vivo.
The next data set can be described thus: in vivo. Particulars: male, CD (Sprague-Dawley) IGS, rat, po, 840 mg/kg.
The target of the next data set is T1, BCRP (Homo sapiens, UniProt Q9UNQ0).
T1 sequence (Q9UNQ0 1-655): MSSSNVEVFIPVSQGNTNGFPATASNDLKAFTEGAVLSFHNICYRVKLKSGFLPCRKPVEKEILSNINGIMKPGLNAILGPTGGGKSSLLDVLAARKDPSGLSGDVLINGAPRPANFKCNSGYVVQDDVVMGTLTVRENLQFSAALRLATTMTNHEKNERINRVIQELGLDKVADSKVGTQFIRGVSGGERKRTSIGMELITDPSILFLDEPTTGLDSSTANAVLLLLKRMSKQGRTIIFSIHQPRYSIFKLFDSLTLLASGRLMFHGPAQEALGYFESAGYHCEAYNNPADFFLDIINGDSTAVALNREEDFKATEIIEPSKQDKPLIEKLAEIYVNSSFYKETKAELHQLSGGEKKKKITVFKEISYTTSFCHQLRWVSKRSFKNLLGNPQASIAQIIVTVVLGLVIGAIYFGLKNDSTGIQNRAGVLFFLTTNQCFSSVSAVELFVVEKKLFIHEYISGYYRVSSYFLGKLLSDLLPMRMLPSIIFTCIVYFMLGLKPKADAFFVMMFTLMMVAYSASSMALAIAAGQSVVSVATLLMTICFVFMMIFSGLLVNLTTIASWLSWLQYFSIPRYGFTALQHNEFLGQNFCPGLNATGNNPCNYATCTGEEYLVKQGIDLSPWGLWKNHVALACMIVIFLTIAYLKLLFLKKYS
Nature of the data set: in vitro. The conditions noted are these: Caco-2 cells, probe 3H-estrone-3-sulfate.

A further data set has as its system CYP3A4 mRNA. Description: in vitro. The conditions noted are these: human, hepatocyte cultures.
Another data set relates to CYP3A4/5. Description: CYP3A4/5 enzyme activity induction in hepatocyte cultures.
The nature of data set [2]: CYP reaction phenotyping, CYP control (negative control without CYP enzymes), % remaining. In kind it is in vitro ADME. Particulars: CYP Control 0.1 mg protein/mL, 5 μM TA, PB and TUDCA co-incubated. The protocol: The percent remaining of TA was calculated using the following equation: […]
For data set [3], the target named is CYPs in human liver microsomes (HLM) (Homo sapiens, UniProt P10635). The conditions noted are these: 5 min.
Sequence of CYPs in human liver microsomes (HLM) (Homo sapiens, UniProt P10635) (P10635 whole entry): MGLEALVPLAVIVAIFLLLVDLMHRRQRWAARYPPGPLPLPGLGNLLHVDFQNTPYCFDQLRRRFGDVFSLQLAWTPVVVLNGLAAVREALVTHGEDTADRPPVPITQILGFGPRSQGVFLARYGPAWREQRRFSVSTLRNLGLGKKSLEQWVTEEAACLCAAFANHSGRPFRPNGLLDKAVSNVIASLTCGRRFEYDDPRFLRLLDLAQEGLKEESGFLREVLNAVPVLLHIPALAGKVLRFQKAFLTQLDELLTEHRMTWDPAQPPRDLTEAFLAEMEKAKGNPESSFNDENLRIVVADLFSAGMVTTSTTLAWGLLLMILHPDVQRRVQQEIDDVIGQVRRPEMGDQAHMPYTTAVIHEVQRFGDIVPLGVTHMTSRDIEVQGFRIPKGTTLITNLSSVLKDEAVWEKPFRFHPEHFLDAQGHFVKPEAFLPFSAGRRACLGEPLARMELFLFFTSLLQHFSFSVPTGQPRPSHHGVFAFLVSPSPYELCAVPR
The target in data set [4] is CYPs in human liver microsomes (HLM) (Homo sapiens, UniProt P11712). Particulars: 5 min.
Sequence of CYPs in human liver microsomes (HLM) (Homo sapiens, UniProt P11712) (P11712 whole entry): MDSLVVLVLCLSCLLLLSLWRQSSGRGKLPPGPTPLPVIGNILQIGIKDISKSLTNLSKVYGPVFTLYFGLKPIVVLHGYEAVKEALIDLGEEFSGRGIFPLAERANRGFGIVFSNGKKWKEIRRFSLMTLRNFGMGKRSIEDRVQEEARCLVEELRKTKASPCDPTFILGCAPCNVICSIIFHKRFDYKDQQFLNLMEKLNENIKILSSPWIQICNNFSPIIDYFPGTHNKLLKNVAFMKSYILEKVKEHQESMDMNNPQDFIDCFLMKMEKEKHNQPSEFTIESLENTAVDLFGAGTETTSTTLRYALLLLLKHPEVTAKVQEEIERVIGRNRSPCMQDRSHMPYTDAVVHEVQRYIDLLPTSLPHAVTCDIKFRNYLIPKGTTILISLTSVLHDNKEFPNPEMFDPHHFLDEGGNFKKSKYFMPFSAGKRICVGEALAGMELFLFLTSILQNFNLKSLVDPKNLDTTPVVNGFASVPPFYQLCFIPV
Data set [5] has as its target T2, CYPs in human liver microsomes (HLM) (Homo sapiens, UniProt P20813).
T2 sequence (P20813 1-491): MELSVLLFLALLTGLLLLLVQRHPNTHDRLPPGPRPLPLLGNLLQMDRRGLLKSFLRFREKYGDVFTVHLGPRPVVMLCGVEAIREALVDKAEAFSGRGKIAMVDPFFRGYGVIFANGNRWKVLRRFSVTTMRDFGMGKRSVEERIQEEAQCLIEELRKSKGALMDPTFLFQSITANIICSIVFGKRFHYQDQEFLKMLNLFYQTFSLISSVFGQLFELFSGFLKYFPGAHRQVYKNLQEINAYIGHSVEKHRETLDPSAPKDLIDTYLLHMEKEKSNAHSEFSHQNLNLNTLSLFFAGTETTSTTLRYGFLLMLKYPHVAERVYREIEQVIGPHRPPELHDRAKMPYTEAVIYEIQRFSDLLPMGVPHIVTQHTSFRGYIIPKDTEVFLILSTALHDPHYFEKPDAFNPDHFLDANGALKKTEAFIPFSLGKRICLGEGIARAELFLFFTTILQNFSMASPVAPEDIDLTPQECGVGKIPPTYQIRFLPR
Particulars: 1 h.

For data set [6], the system named is CYPs in human liver microsomes (HLM).
In another data set the target is MATE2K (Homo sapiens, UniProt Q86VL8). Nature of the data set: MATE2K inhibition, metformin uptake in transfected HEK cells. The conditions noted are these: read-out: Estimated IC50 toward MATE2K; TUDCA and PB present simultaneously.
Sequence of MATE2K (Q86VL8 1-566 isoform Q86VL8-3): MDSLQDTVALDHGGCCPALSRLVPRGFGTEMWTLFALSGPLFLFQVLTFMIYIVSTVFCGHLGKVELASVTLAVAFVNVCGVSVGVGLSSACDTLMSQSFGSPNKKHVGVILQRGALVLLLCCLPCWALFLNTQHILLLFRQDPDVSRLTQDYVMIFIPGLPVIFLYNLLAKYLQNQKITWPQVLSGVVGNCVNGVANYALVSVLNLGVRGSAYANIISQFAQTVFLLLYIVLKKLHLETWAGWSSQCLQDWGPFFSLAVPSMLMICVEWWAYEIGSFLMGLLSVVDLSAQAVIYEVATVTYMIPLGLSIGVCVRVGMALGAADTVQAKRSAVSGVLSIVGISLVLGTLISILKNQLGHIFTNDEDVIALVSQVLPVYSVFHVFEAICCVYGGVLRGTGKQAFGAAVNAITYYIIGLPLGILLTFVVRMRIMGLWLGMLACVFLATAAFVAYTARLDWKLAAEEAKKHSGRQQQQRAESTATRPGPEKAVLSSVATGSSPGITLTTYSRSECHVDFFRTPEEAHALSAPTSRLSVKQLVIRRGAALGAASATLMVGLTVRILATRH
Data set [7] deals with T3, CYPs in human liver microsomes (HLM) (Homo sapiens, UniProt P10632).
T3 sequence (P10632 1-490): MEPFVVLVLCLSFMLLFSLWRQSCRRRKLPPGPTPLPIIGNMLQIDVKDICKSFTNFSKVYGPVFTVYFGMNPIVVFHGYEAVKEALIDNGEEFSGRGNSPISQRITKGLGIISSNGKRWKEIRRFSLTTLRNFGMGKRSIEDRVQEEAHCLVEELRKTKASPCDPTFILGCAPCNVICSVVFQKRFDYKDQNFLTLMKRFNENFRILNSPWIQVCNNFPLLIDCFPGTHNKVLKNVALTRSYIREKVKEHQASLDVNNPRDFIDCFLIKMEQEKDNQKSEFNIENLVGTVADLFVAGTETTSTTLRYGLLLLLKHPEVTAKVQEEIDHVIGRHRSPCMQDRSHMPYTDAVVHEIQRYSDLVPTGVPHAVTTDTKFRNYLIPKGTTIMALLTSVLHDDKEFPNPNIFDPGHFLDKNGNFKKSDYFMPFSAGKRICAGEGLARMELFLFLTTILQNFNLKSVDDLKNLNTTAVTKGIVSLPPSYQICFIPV
Nature of the data set: CYP reaction phenotyping in HLM with chemical inhibitors (% remaining). The conditions noted are these: +NADPH +montelukast (CYP2C8).

Data set [8] addresses T2, CYPs in human liver microsomes (HLM). The data set is described as above. Particulars: +NADPH +thio-TEPA (CYP2B6).

Where two headings read alike, the source gives them in different places.

As a reminder, the Tmax is the time from dosing to the highest level. By fold induction is commonly meant the signal under treatment as a multiple of the control signal. Low readings indicate a weak induction, high ones a strong induction. For orientation: IC50 means the midpoint of a concentration-inhibition curve.

Regarding `O=C(O)CCCc1ccccc1` [PB, sodium phenylbutyrate], in data set [1], the “Time through which plasma concentrations remained quantifiable” value came out at 4 h. Also, the Tmax in the data set “in vivo” is 15 to 30 min.
With `C[C@H](CCC(=O)NCC(=O)O)[C@H]1CC[C@H]2[C@@H]3[C@@H](O)C[C@@H]4C[C@H](O)CC[C@]4(C)[C@H]3CC[C@]12C` [Glycoursodeoxycholic acid, glycoursodeoxycholic acid], the entries for the “Maximum fold induction of CYP2B6 activity” value in the data set on CYP2B6 (Donor 1), in the data set with CYP2B6 (Donor 2) and with CYP2B6 (Donor 3) were 1.50 fold, 2.81 fold and 1.52 fold, respectively. Besides, on BCRP, the potency estimated from few doses is greater than 100 µM. The fold induction at 72 h in the data set on CYP3A4 mRNA is 2.44. The “Maximum fold induction of CYP3A4/5 activity” value in the data set with CYP3A4/5 (Donor 1) was 1.34 fold; with CYP3A4/5 (Donor 2), 1.98 fold; with CYP3A4/5 (Donor 3), 2.70 fold.
tauroursodeoxycholic acid [TUDCA]: the “% Remaining of TA” value is 100% in [2] (0 min); 99.4% in [2] (5 min); 97.9% in data set [2] (10 min); 95.9% in [2] (20 min); 93.7% in data set [2] (30 min); 101% in data set [2] (60 min). Also, the “% remaining of TA in HLM” value worked out at 101% in [3]; 102% in [4]; 102% in data set [5]; 103% in [6] (5 min); 105% in data set [6] (1 h); 101% in data set [7] (5 min). Also, the “% remaining of TA in HLM” value in data set [7] (10 min) worked out at 103%; in [7] (20 min), 95.5%; in [7] (30 min), 105%; in data set [7] (60 min), 97.7%; in data set [8] (5 min), 112%; in data set [8] (10 min), 112%. Besides, the results for the “% remaining of TA in HLM” value in [8] (20 min) and in data set [8] (30 min) were 122% and 116%, respectively. Further, the IC50 at MATE2K was greater than 810 µM.
